Data as given in patent US9956293B2, “Targeted therapeutics” (Madrigal Pharmaceuticals, Inc., priority 2014, dated 2018).

Test system: HER2
Assay: HER2 degradation assay with BT-474 cell line (Example 12, FACS)
Assay type: cell-based
Details: Homo sapiens, BT-474; SDC-TRAPs of the 52nd table

| IC50 [µM] | Compound |
| --- | --- |
| > 5 | CCNC(=O)c1nnc(-c2cc(C(C)C)c(O)cc2O)n1-c1ccc(Oc2ccc(C(=O)NC(Cc3ccccc3)C(=O)Nc3cc(-c4cnoc4-c4cc(OC)c(OC)c(OC)c4)ccc3OC)cc2)cc1 (centres unmarked) [SDC-TRAP-0158, 5-(2,4-dihydroxy-5-isopropylphenyl)-N-ethyl-4-(4-(4-((1-((2-methoxy-5-(5-(3,4,5-trimethoxyphenyl)isoxazol-4-yl)phenyl)amino)-1-oxo-3-phenylpropan-2-yl)carbamoyl)phenoxy)phenyl)-4H-1,2,4-triazole-3-carboxamide] |

Same assay, conditions: Homo sapiens; BT-474 cells

| IC50 [µM] | Compound |
| --- | --- |
| 1 to 2 | CCNC(=O)c1nnc(-c2cc(C(C)C)c(O)cc2O)n1-c1ccc(C(=O)N(C)CC(=O)N2CCC(n3cc(-c4cnc(N)c(O[C@H](C)c5c(Cl)ccc(F)c5Cl)c4)cn3)CC2)cc1 [SDC-TRAP-0139, (R)-4-(4-((2-(4-(4-(6-amino-5-(1-(2,6-dichloro-3-fluorophenyl)ethoxy)pyridin-3-yl)-1H-pyrazol-1-yl)piperidin-1-yl)-2-oxoethyl)(methyl)carbamoyl)phenyl)-5-(2,4-dihydroxy-5-isopropylphenyl)-N-ethyl-4H-1,2,4-triazole-3-carboxamide] |
| > 5 | CCNC(=O)c1nnc(-c2cc(C(C)C)c(O)cc2O)n1-c1ccc(C(=O)N2CCC(CCOC(=O)Nc3cccc4c3CN(C3CCC(=O)NC3=O)C4=O)CC2)cc1 (centres unmarked) [SDC-TRAP-0140, 2-(1-(4-(3-(2,4-dihydroxy-5-isopropylphenyl)-5-(ethylcarbamoyl)-4H-1,2,4-triazol-4-yl)benzoyl)piperidin-4-yl)ethyl(2-(2,6-dioxopiperidin-3-yl)-1-oxoisoindolin-4-yl)carbamate] |
| 4.33 | CCNC(=O)c1nnc(-c2cc(C(C)C)c(O)cc2O)n1-c1ccc(C(=O)N(C)CC(=O)Nc2cccc3c2CN(C2CCC(=O)NC2=O)C3=O)cc1 (centres unmarked) [SDC-TRAP-0147, 5-(2,4-dihydroxy-5-isopropylphenyl)-4-(4-((2-((2-(2,6-dioxopiperidin-3-yl)-1-oxoisoindolin-4-yl)amino)-2-oxoethyl)(methyl)carbamoyl)phenyl)-N-ethyl-4H-1,2,4-triazole-3-carboxamide] |
| 1.69 | CCNC(=O)c1nnc(-c2cc(C(C)C)c(O)cc2O)n1-c1ccc(CN2CCC(C(=O)Nc3cccc4c3CN(C3CCC(=O)NC3=O)C4=O)CC2)cc1 (centres unmarked) [SDC-TRAP-0149, 1-(4-(3-(2,4-dihydroxy-5-isopropylphenyl)-5-(ethylcarbamoyl)-4H-1,2,4-triazol-4-yl)benzyl)-N-(2-(2,6-dioxopiperidin-3-yl)-1-oxoisoindolin-4-yl)piperidine-4-carboxamide] |
| 1.19 | CC(C)c1cc(-c2nnc(O)n2-c2ccc3c(c2)cc(CN2CCC(COC(=O)Nc4cccc5c4CN(C4CCC(=O)NC4=O)C5=O)CC2)n3C)c(O)cc1O (centres unmarked) [SDC-TRAP-0155, (1-((5-(3-(2,4-dihydroxy-5-isopropylphenyl)-5-hydroxy-4H-1,2,4-triazol-4-yl)-1-methyl-1H-indol-2-yl)methyl)piperidin-4-yl)methyl (2-(2,6-dioxopiperidin-3-yl)-1-oxoisoindolin-4-yl)carbamate] |
| 3.5 | CC(C)c1cc(-c2nnc(O)n2-c2ccc(N3CCN(C(=O)c4ccc(COC(=O)Nc5cccc6c5CN(C5CCC(=O)NC5=O)C6=O)cc4)CC3)cc2)c(O)cc1O (centres unmarked) [SDC-TRAP-0156, 4-(4-(4-(3-(2,4-Dihydroxy-5-isopropylphenyl)-5-hydroxy-4H-1,2,4-triazol-4-yl)phenyl)piperazine-1-carbonyl)benzyl (2-(2,6-dioxopiperidin-3-yl)-1-oxoisoindolin-4-yl)carbamate] |
| 0.696 | CC(C)c1cc(-c2nnc(O)n2-c2ccc(CN3CCN(C(=O)c4ccc(COC(=O)Nc5cccc6c5CN(C5CCC(=O)NC5=O)C6=O)cc4)CC3)c(F)c2)c(O)cc1O (centres unmarked) [SDC-TRAP-0157, 4-(4-(4-(3-(2,4-dihydroxy-5-isopropylphenyl)-5-hydroxy-4H-1,2,4-triazol-4-yl)-2-fluorobenzyl)piperazine-1-carbonyl)benzyl (2-(2,6-dioxopiperidin-3-yl)-1-oxoisoindolin-4-yl)carbamate] |
| 0.239 | CC(C)c1cc(-c2nnc(O)n2-c2ccc(CN3CCN(C(=O)c4cnc(C(=O)Nc5cccc6c5CN(C5CCC(=O)NC5=O)C6=O)cn4)CC3)c(F)c2)c(O)cc1O (centres unmarked) [SDC-TRAP-0160, 5-(4-(4-(3-(2,4-dihydroxy-5-isopropylphenyl)-5-hydroxy-4H-1,2,4-triazol-4-yl)-2-fluorobenzyl)piperazine-1-carbonyl)-N-(2-(2,6-dioxopiperidin-3-yl)-1-oxoisoindolin-4-yl)pyrazine-2-carboxamide] |
| 0.885 | CCNC(=O)c1nnc(-c2cc(C(C)C)c(O)cc2O)n1-c1ccc(CN2CCC(C(=O)N[C@H](C(=O)Nc3cccc4c3CN(C3CCC(=O)NC3=O)C4=O)C(C)C)CC2)cc1 (stereo partly drawn) [SDC-TRAP-0163, 1-(4-(3-(2,4-dihydroxy-5-isopropylphenyl)-5-(ethylcarbamoyl)-4H-1,2,4-triazol-4-yl)benzyl)-N-((2S)-1-((2-(2,6-dioxopiperidin-3-yl)-1-oxoisoindolin-4-yl)amino)-3-methyl-1-oxobutan-2-yl)piperidine-4-carboxamide] |
| 0.493 | CCNC(=O)c1nnc(-c2cc(C(C)C)c(O)cc2O)n1-c1ccc(CN2CCC(C(=O)N3CCC[C@H]3C(=O)Nc3cccc4c3CN(C3CCC(=O)NC3=O)C4=O)CC2)cc1 (stereo partly drawn) [SDC-TRAP-0164, 5-(2,4-dihydroxy-5-isopropylphenyl)-4-(4-((4-((2S)-2-((2-(2,6-dioxopiperidin-3-yl)-1-oxoisoindolin-4-yl)carbamoyl)pyrrolidine-1-carbonyl)piperidin-1-yl)methyl)phenyl)-N-ethyl-4H-1,2,4-triazole-3-carboxamide] |

| Compound | IC50 [µM] |
| --- | --- |
| CC(C)c1cc(-c2nnc(O)n2-c2ccc(CN3CCN(C(=O)O[C@H]4CC[C@@]5(C)C(=CC[C@@H]6[C@@H]5CC[C@]5(C)C(c7cccnc7)=CC[C@@H]65)C4)CC3)cc2)c(O)cc1O [SDC-TRAP-0150, (3S,8R,9S,10R,13S,14S)-10,13-dimethyl-17-(pyridin-3-yl)-2,3,4,7,8,9,10,11,12,13,14,15-dodecahydro-1H-cyclopenta[a]phenanthren-3-yl 4-(4-(3-(2,4-dihydroxy-5-isopropylphenyl)-5-hydroxy-4H-1,2,4-triazol-4-yl)benzyl) piperazine-1-carboxylate] | 1.41 |
| CC(C)c1cc(-c2nnc(O)n2-c2ccc3c(ccn3CCOCCNC(=O)O[C@H]3CC[C@@]4(C)C(=CC[C@@H]5[C@@H]4CC[C@]4(C)C(c6cccnc6)=CC[C@@H]54)C3)c2)c(O)cc1O [SDC-TRAP-0151, (3S,8R,9S,10R,13S,14S)-10,13-dimethyl-17-(pyridin-3-yl)-2,3,4,7,8,9,10,11,12,13,14,15-dodecahydro-1H-cyclopenta[a]phenanthren-3-yl (2-(2-(5-(3-(2,4-dihydroxy-5-isopropylphenyl)-5-hydroxy-4H-1,2,4-triazol-4-yl)-1H-indol-1-yl)ethoxy)ethyl)carbamate] | 1.19 |
| CC(C)c1cc(-c2nnc(O)n2-c2ccc(CC3CCN(C(=O)O[C@H]4CC[C@@]5(C)C(=CC[C@@H]6[C@@H]5CC[C@]5(C)C(c7cccnc7)=CC[C@@H]65)C4)CC3)cc2)c(O)cc1O [SDC-TRAP-0153, (3S,8R,9S,10R,13S,14S)-10,13-dimethyl-17-(pyridin-3-yl)-2,3,4,7,8,9,10,11,12,13,14,15-dodecahydro-1H-cyclopenta[a]phenanthren-3-yl 4-(4-(3-(2,4-dihydroxy-5-isopropylphenyl)-5-hydroxy-4H-1,2,4-triazol-4-yl)benzyl) piperidine-1-carboxylate] | 6.34 |
